How the values were obtained:
[1] = 101.33 kPa, Liquid
[2] = xn = mol fraction of the nth substance listed; conditions: 101 kPa, Liquid

CCOCC [diethyl ether]
Conditions | mass density [kg/m3]
[1], 298.15 K | 707.79

CCOCC [diethyl ether] + CN(C)C=O
[2], 298.15 K
Conditions | mass density [kg/m3]
x2 = 0.0575 | 720.7
x2 = 0.1033 | 730.11
x2 = 0.1606 | 742.64
x2 = 0.2076 | 752.93
x2 = 0.2524 | 762.76
x2 = 0.2979 | 772.93
x2 = 0.3683 | 788.85
x2 = 0.4058 | 797.64
x2 = 0.4414 | 805.85
x2 = 0.4932 | 818.09
x2 = 0.5094 | 821.95
x2 = 0.53 | 826.82
x2 = 0.5595 | 833.95
x2 = 0.6229 | 849.26
x2 = 0.643 | 854.21
x2 = 0.717 | 872.52
x2 = 0.7584 | 882.84
x2 = 0.8124 | 896.81
x2 = 0.8523 | 906.61
x2 = 0.9295 | 926.56
x2 = 0.9655 | 936.09

CC(C)OC(C)C [diisopropyl ether]
[1]
Conditions | mass density [kg/m3]
298.15 K | 718.51
313.15 K | 702.59
328.15 K | 686.2

CC(C)OC(C)C [diisopropyl ether] + CN(C)C=O
mass density [kg/m3], [2]
Conditions | 298.15 K | 313.15 K | 328.15 K
x2 = 0.0551 | 726.89 | 711.08 | 694.81
x2 = 0.0998 | 733.84 | 718.04 | 701.68
x2 = 0.1567 | 742.64 | 726.81 | 710.25
x2 = 0.2133 | 751.81 | 736.08 | 719.61
x2 = 0.2581 | 759.64 | 743.93 | 727.41
x2 = 0.3049 | 767.92 | 752.25 | 735.75
x2 = 0.3548 | 777.09 | 761.49 | 744.95
x2 = 0.4003 | 785.84 | 770.29 | 753.71
x2 = 0.4401 | 793.67 | 778.18 | 761.59
x2 = 0.4868 | 803.29 | 787.92 | 771.3
x2 = 0.5049 | 807.13 | 791.8 | 775.18
x2 = 0.5285 | 812.21 | 796.95 | 780.34
x2 = 0.5548 | 818.02 | 802.83 | 786.22
x2 = 0.6182 | 832.62 | 817.65 | 801.09
x2 = 0.653 | 840.97 | 826.05 | 809.51
x2 = 0.7137 | 856.34 | 841.67 | 825.18
x2 = 0.7611 | 869.01 | 854.62 | 838.24
x2 = 0.801 | 880.32 | 866.12 | 849.8
x2 = 0.8447 | 893.01 | 879.09 | 862.93
x2 = 0.9027 | 911.02 | 897.56 | 881.59
x2 = 0.9502 | 926.7 | 913.74 | 897.98

CN(C)C=O [dimethylformamide]
[1]
Conditions | mass density [kg/m3]
298.15 K | 943.85
313.15 K | 930.98
328.15 K | 915.07
343.15 K | 900.41
358.15 K | 885.68

CCCCCOCCCCC [dipentyl ether]
[1]
Conditions | mass density [kg/m3]
298.15 K | 778.96
313.15 K | 768.65
328.15 K | 756.32
343.15 K | 743.97
358.15 K | 731.37

CCCOCCC [dipropyl ether]
[1]
Conditions | mass density [kg/m3]
298.15 K | 741.94
313.15 K | 727.87
328.15 K | 713.73
343.15 K | 699.61
358.15 K | 684.92
